Experimental data from ChEMBL document CHEMBL5032494, “Novel Mixed NOP/Opioid Receptor Peptide Agonists” (J Med Chem, 2021).
The source made the active and inactive calls. The rule behind the calls is not given here. Where a SMILES comes first, the peptide text is derived from it. [ ]: non-standard residue; d: D form. Phe(4-NO2) = N[C@@H](Cc1ccc([N+](=O)[O-])cc1)C(=O)O; Bip = N[C@@H](Cc1ccc(-c2ccccc2)cc1)C(=O)O; Phe(4-NH2) = Nc1ccc(C[C@H](N)C(=O)O)cc1; Phe(4-F) = N[C@@H](Cc1ccc(F)cc1)C(=O)O; 1Nal = N[C@@H](Cc1cccc2ccccc12)C(=O)O; 2Nal = N[C@@H](Cc1ccc2ccccc2c1)C(=O)O; Dmt = Cc1cc(O)cc(C)c1C[C@H](N)C(=O)O; hPhe = N[C@@H](CCc1ccccc1)C(=O)O; Phg = N[C@H](C(=O)O)c1ccccc1; Dab = NCC[C@H](N)C(=O)O; Abu = CC[C@H](N)C(=O)O; Dap = NC[C@H](N)C(=O)O

Legend:
Nociceptin receptor [1] = target: T1, Nociceptin receptor (Homo sapiens, UniProt P41146); assay: Agonist activity at human NOP receptor expressed in CHO cells assessed as stimulation of calcium mobilization by Fluo-4 AM dye based analysis
T1 sequence (P41146 whole entry): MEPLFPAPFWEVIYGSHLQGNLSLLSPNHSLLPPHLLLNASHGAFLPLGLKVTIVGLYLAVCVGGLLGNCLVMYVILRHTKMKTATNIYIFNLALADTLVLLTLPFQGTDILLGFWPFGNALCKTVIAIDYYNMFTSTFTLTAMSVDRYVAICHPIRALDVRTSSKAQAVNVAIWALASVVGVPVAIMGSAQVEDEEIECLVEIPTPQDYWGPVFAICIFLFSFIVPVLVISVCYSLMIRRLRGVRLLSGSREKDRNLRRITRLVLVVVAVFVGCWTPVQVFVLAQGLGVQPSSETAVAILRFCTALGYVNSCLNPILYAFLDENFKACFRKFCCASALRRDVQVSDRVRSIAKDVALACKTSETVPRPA

Mu-type opioid receptor [2] = target: T2, Mu-type opioid receptor (Homo sapiens, UniProt P35372); assay: Agonist activity at human mu opioid receptor expressed in CHO cells assessed as stimulation of calcium mobilization by Fluo-4 AM dye based analysis
T2 sequence (P35372 whole entry): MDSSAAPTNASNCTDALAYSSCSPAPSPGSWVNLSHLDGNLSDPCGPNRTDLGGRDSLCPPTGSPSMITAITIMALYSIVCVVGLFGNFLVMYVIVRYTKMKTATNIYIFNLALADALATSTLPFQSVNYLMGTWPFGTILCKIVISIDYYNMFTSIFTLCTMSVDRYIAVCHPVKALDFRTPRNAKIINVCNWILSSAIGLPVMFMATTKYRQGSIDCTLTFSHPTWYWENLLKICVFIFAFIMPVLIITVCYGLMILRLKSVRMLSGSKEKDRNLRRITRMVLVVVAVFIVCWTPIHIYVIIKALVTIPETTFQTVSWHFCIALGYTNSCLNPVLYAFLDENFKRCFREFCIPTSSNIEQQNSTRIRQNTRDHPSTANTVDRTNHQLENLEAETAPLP

CHO = assay: Concentration ratio of human NOP receptor expressed in CHO cells to human mu opioid receptor expressed in CHO cells; type: cell-based
Mu-type opioid receptor [3] = target: T2, Mu-type opioid receptor; conditions: CHO
Mu-type opioid receptor [4] = target: T2, Mu-type opioid receptor; assay: Agonist activity at human mu opioid receptor expressed in CHO cells assessed as stimulation of calcium mobilization by measuring concentration relative curve at 10 uM by Fluo-4 AM dye based analysis; type: functional, cell-based
Mu-type opioid receptor [5] = target: T2, Mu-type opioid receptor; assay: Agonist activity at human mu opioid receptor expressed in CHO cells assessed as dynamic mass redistribution by DMR assay relative to control; type: functional, cell-based; conditions: filed as agonist
Cavia porcellus [6] = species on record: Cavia porcellus; assay: Anti-tussive activity in citric acid-induced guniea pig cough model assessed as reduction in cough number co- treated with nebulizer; type: functional, organism-based; conditions: time 30.0 min
Nociceptin receptor [7] = target: T1, Nociceptin receptor
Description: Agonist activity at human NOP receptor expressed in CHO cells assessed as dynamic mass redistribution by DMR assay

Mu-type opioid receptor [8] = target: T2, Mu-type opioid receptor; assay: Agonist activity at human mu opioid receptor expressed in CHO cells assessed as dynamic mass redistribution by DMR assay; type: functional, cell-based
[9] = target: Kappa-type opioid receptor (Homo sapiens, UniProt P41145); assay: Agonist activity at human kappa opioid receptor expressed in CHO cells assessed as stimulation of calcium mobilization by Fluo-4 AM dye based analysis; type: functional, cell-based
Chain of Kappa-type opioid receptor (P41145 whole entry): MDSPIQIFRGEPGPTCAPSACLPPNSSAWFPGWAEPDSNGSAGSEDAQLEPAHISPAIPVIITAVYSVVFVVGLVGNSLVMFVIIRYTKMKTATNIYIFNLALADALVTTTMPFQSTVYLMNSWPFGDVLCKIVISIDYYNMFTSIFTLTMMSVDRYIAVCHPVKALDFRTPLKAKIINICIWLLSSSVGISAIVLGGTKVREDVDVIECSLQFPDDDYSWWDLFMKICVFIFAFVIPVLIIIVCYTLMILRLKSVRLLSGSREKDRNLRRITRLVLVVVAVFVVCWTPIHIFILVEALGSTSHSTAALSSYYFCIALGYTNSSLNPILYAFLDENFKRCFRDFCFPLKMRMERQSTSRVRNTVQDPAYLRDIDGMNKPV

Cavia porcellus [10] = assay: Anti-tussive activity in citric acid-induced guniea pig cough model coadministered with citric acid; type: functional, organism-based

Row | Molecule | EC50 (Nociceptin receptor [1]) | EC50 (Mu-type opioid receptor [2]) | Ratio (CHO) | pEC50 (Mu-type opioid receptor [4]) | other results
1 | Cc1cc(O)cc(C)c1C[C@H](N)C(=O)NCC(=O)NCC(=O)N[C@@H](Cc1ccccc1)C(=O)N[C@H](C(=O)NCC(=O)N[C@@H](C)C(=O)N[C@@H](CCCNC(=N)N)C(=O)N[C@@H](CCCCN)C(=O)N[C@@H](CO)C(=O)N[C@@H](C)C(=O)N[C@@H](CCCNC(=N)N)C(=O)N[C@@H](CCCCN)C(N)=O)[C@@H](C)O | 2.69 nM | 42.7 nM | 0.06 |  | 
2 | C[C@H](NC(=O)CNC(=O)[C@@H](NC(=O)[C@H](Cc1ccccc1)NC(=O)CNC(=O)CNC(=O)[C@@H](N)Cc1ccccc1)[C@@H](C)O)C(=O)N[C@@H](CCCNC(=N)N)C(=O)N[C@@H](CCCCN)C(=O)N[C@@H](CO)C(=O)N[C@@H](C)C(=O)N[C@@H](CCCNC(=N)N)C(=O)N[C@@H](CCCCN)C(N)=O |  |  |  |  | pEC50 (Mu-type opioid receptor [3]): inactive
3 | COc1ccc(C[C@H](NC(=O)[C@H](Cc2ccccc2)NC(=O)CNC(=O)CNC(=O)[C@@H](N)Cc2ccc(O)cc2)C(=O)NCC(=O)N[C@@H](C)C(=O)N[C@@H](CCCNC(=N)N)C(=O)N[C@@H](CCCCN)C(=O)N[C@@H](CO)C(=O)N[C@@H](C)C(=O)N[C@@H](CCCNC(=N)N)C(=O)N[C@@H](CCCCN)C(N)=O)cc1 (H-YGGFY(Me)GARKSARK-NH2) | 13.2 nM |  | 0.02 | inactive | 
4 | C[C@H](NC(=O)CNC(=O)[C@H](Cc1ccc2ccccc2c1)NC(=O)[C@H](Cc1ccccc1)NC(=O)CNC(=O)CNC(=O)[C@@H](N)Cc1ccc(O)cc1)C(=O)N[C@@H](CCCNC(=N)N)C(=O)N[C@@H](CCCCN)C(=O)N[C@@H](CO)C(=O)N[C@@H](C)C(=O)N[C@@H](CCCNC(=N)N)C(=O)N[C@@H](CCCCN)C(N)=O (H-YGGF[2Nal]GARKSARK-NH2) |  |  |  | inactive | 
5 | CC[C@H](NC(=O)[C@H](Cc1ccccc1)NC(=O)CNC(=O)CNC(=O)[C@@H](N)Cc1ccc(O)cc1)C(=O)NCC(=O)N[C@@H](C)C(=O)N[C@@H](CCCNC(=N)N)C(=O)N[C@@H](CCCCN)C(=O)N[C@@H](CO)C(=O)N[C@@H](C)C(=O)N[C@@H](CCCNC(=N)N)C(=O)N[C@@H](CCCCN)C(N)=O (H-YGGF[Abu]GARKSARK-NH2) |  |  |  | inactive | 
6 | C[C@H](NC(=O)CNC(=O)[C@H](Cc1ccc(-c2ccccc2)cc1)NC(=O)[C@H](Cc1ccccc1)NC(=O)CNC(=O)CNC(=O)[C@@H](N)Cc1ccc(O)cc1)C(=O)N[C@@H](CCCNC(=N)N)C(=O)N[C@@H](CCCCN)C(=O)N[C@@H](CO)C(=O)N[C@@H](C)C(=O)N[C@@H](CCCNC(=N)N)C(=O)N[C@@H](CCCCN)C(N)=O (H-YGGF[Bip]GARKSARK-NH2) |  |  |  | inactive | 
7 | C[C@H](NC(=O)CNC(=O)[C@H](CCN)NC(=O)[C@H](Cc1ccccc1)NC(=O)CNC(=O)CNC(=O)[C@@H](N)Cc1ccc(O)cc1)C(=O)N[C@@H](CCCNC(=N)N)C(=O)N[C@@H](CCCCN)C(=O)N[C@@H](CO)C(=O)N[C@@H](C)C(=O)N[C@@H](CCCNC(=N)N)C(=O)N[C@@H](CCCCN)C(N)=O (H-YGGF[Dab]GARKSARK-NH2) |  |  |  | inactive | 
8 | C[C@H](NC(=O)CNC(=O)[C@H](CN)NC(=O)[C@H](Cc1ccccc1)NC(=O)CNC(=O)CNC(=O)[C@@H](N)Cc1ccc(O)cc1)C(=O)N[C@@H](CCCNC(=N)N)C(=O)N[C@@H](CCCCN)C(=O)N[C@@H](CO)C(=O)N[C@@H](C)C(=O)N[C@@H](CCCNC(=N)N)C(=O)N[C@@H](CCCCN)C(N)=O (H-YGGF[Dap]GARKSARK-NH2) |  |  |  | inactive | 
9 | Cc1cc(O)cc(C)c1C[C@H](NC(=O)[C@H](Cc1ccccc1)NC(=O)CNC(=O)CNC(=O)[C@@H](N)Cc1ccc(O)cc1)C(=O)NCC(=O)N[C@@H](C)C(=O)N[C@@H](CCCNC(=N)N)C(=O)N[C@@H](CCCCN)C(=O)N[C@@H](CO)C(=O)N[C@@H](C)C(=O)N[C@@H](CCCNC(=N)N)C(=O)N[C@@H](CCCCN)C(N)=O (H-YGGF[Dmt]GARKSARK-NH2) | 17.8 nM | 195 nM | 0.09 |  | 
10 | C[C@H](NC(=O)CNC(=O)[C@H](Cc1ccc(F)cc1)NC(=O)[C@H](Cc1ccccc1)NC(=O)CNC(=O)CNC(=O)[C@@H](N)Cc1ccc(O)cc1)C(=O)N[C@@H](CCCNC(=N)N)C(=O)N[C@@H](CCCCN)C(=O)N[C@@H](CO)C(=O)N[C@@H](C)C(=O)N[C@@H](CCCNC(=N)N)C(=O)N[C@@H](CCCCN)C(N)=O (H-YGGF[Phe(4-F)]GARKSARK-NH2) | 49 nM |  | 0.06 | inactive | 
11 | C[C@H](NC(=O)CNC(=O)[C@H](Cc1ccc(N)cc1)NC(=O)[C@H](Cc1ccccc1)NC(=O)CNC(=O)CNC(=O)[C@@H](N)Cc1ccc(O)cc1)C(=O)N[C@@H](CCCNC(=N)N)C(=O)N[C@@H](CCCCN)C(=O)N[C@@H](CO)C(=O)N[C@@H](C)C(=O)N[C@@H](CCCNC(=N)N)C(=O)N[C@@H](CCCCN)C(N)=O (H-YGGF[Phe(4-NH2)]GARKSARK-NH2) | 30.2 nM | 372 nM | 0.08 |  | 
12 | C[C@H](NC(=O)CNC(=O)[C@H](Cc1ccc([N+](=O)[O-])cc1)NC(=O)[C@H](Cc1ccccc1)NC(=O)CNC(=O)CNC(=O)[C@@H](N)Cc1ccc(O)cc1)C(=O)N[C@@H](CCCNC(=N)N)C(=O)N[C@@H](CCCCN)C(=O)N[C@@H](CO)C(=O)N[C@@H](C)C(=O)N[C@@H](CCCNC(=N)N)C(=O)N[C@@H](CCCCN)C(N)=O (H-YGGF[Phe(4-NO2)]GARKSARK-NH2) | 49 nM |  | 0.06 | inactive | 
13 | C[C@H](NC(=O)CNC(=O)[C@H](CCc1ccccc1)NC(=O)[C@H](Cc1ccccc1)NC(=O)CNC(=O)CNC(=O)[C@@H](N)Cc1ccc(O)cc1)C(=O)N[C@@H](CCCNC(=N)N)C(=O)N[C@@H](CCCCN)C(=O)N[C@@H](CO)C(=O)N[C@@H](C)C(=O)N[C@@H](CCCNC(=N)N)C(=O)N[C@@H](CCCCN)C(N)=O (H-YGGF[hPhe]GARKSARK-NH2) |  |  |  | inactive | 
14 | Cc1cc(O)cc(C)c1C[C@H](N)C(=O)NCC(=O)NCC(=O)N[C@@H](Cc1ccccc1)C(=O)N[C@@H](Cc1ccccc1)C(=O)NCC(=O)N[C@@H](C)C(=O)N[C@@H](CCCNC(=N)N)C(=O)N[C@@H](CCCCN)C(=O)N[C@@H](CO)C(=O)N[C@@H](C)C(=O)N[C@@H](CCCNC(=N)N)C(=O)N[C@@H](CCCCN)C(N)=O (H-[Dmt]GGFFGARKSARK-NH2) | 56.2 nM | 6.46 nM | 8.71 |  | 
15 | Cc1cc(O)cc(C)c1C[C@H](N)C(=O)NCC(=O)NCC(=O)N[C@@H](Cc1ccccc1)C(=O)N[C@@H](Cc1ccc(O)cc1)C(=O)NCC(=O)N[C@@H](C)C(=O)N[C@@H](CCCNC(=N)N)C(=O)N[C@@H](CCCCN)C(=O)N[C@@H](CO)C(=O)N[C@@H](C)C(=O)N[C@@H](CCCNC(=N)N)C(=O)N[C@@H](CCCCN)C(N)=O (H-[Dmt]GGFYGARKSARK-NH2) | 123 nM | 15.5 nM | 7.94 |  | 
16 | Cc1cc(O)cc(C)c1C[C@H](N)C(=O)NCC(=O)NCC(=O)N[C@@H](Cc1ccccc1)C(=O)N[C@@H](Cc1cccc2ccccc12)C(=O)NCC(=O)N[C@@H](C)C(=O)N[C@@H](CCCNC(=N)N)C(=O)N[C@@H](CCCCN)C(=O)N[C@@H](CO)C(=O)N[C@@H](C)C(=O)N[C@@H](CCCNC(=N)N)C(=O)N[C@@H](CCCCN)C(N)=O (H-[Dmt]GGF[1Nal]GARKSARK-NH2) | 60.3 nM | 15.8 nM | 3.8 |  | 
17 | Cc1cc(O)cc(C)c1C[C@H](NC(=O)[C@H](Cc1ccccc1)NC(=O)CNC(=O)CNC(=O)[C@@H](N)Cc1c(C)cc(O)cc1C)C(=O)NCC(=O)N[C@@H](C)C(=O)N[C@@H](CCCNC(=N)N)C(=O)N[C@@H](CCCCN)C(=O)N[C@@H](CO)C(=O)N[C@@H](C)C(=O)N[C@@H](CCCNC(=N)N)C(=O)N[C@@H](CCCCN)C(N)=O (H-[Dmt]GGF[Dmt]GARKSARK-NH2) | 4.07 nM | 8.32 nM | 0.49 |  | Emax (Mu-type opioid receptor [5]): 202%; Activity (Cavia porcellus [6]): Active; EC50 (Nociceptin receptor [7]): 19.5 nM; EC50 (Mu-type opioid receptor [8]): 2.29 nM; EC50 [9]: 3.24 nM; Activity (Cavia porcellus [10]): inactive
18 | Cc1cc(O)cc(C)c1C[C@H](N)C(=O)NCC(=O)NCC(=O)N[C@@H](Cc1ccccc1)C(=O)N[C@@H](Cc1ccc(N)cc1)C(=O)NCC(=O)N[C@@H](C)C(=O)N[C@@H](CCCNC(=N)N)C(=O)N[C@@H](CCCCN)C(=O)N[C@@H](CO)C(=O)N[C@@H](C)C(=O)N[C@@H](CCCNC(=N)N)C(=O)N[C@@H](CCCCN)C(N)=O (H-[Dmt]GGF[Phe(4-NH2)]GARKSARK-NH2) | 26.3 nM | 15.1 nM | 1.73 |  | 
19 | Cc1cc(O)cc(C)c1C[C@H](N)C(=O)NCC(=O)NCC(=O)N[C@@H](Cc1ccccc1)C(=O)N[C@H](C(=O)NCC(=O)N[C@@H](C)C(=O)N[C@@H](CCCNC(=N)N)C(=O)N[C@@H](CCCCN)C(=O)N[C@@H](CO)C(=O)N[C@@H](C)C(=O)N[C@@H](CCCNC(=N)N)C(=O)N[C@@H](CCCCN)C(N)=O)c1ccccc1 (H-[Dmt]GGF[Phg]GARKSARK-NH2) | 112 nM | 2.88 nM | 39 |  | 
20 | H-YGGFHGARKSARK-NH2 |  |  |  | inactive | 
21 | H-YGGFK(Ac)GARKSARK-NH2 |  |  |  | inactive | 
22 | H-YGGFKGARKSARK-NH2 |  |  |  | inactive | 
23 | H-YGGFNGARKSARK-NH2 |  |  |  | inactive | 
24 | H-YGGFTGARKSARK-NH2 |  |  | < 0.001 | inactive | 
25 | H-YGGFVGARKSARK-NH2 |  |  |  | inactive | 
26 | H-YGGFWGARKSARK-NH2 |  |  |  | inactive | 
